{"source": "patent US20180045715A1", "about": "“STRUCTURE AND FUNCTION OF THE SALICYCLIC ACID BINDING SITES ON HUMAN HMGB1 AND METHODS OF USE THEREOF FOR THE RATIONAL DESIGN OF BOTH SALICYCLIC ACID DERIVATIVES AND OTHER AGENTS THAT ALTER ANIMAL AND PLANT HMGBS ACTIVITIES” (Boyce Thompson Institute for Plant Research, Inc., priority 2015, published 2018)", "key": {"AtHMGB3": {"target": "T1, AtHMGB3 (Arabidopsis thaliana, UniProt P93047)", "T1 sequence (P93047 1-141)": "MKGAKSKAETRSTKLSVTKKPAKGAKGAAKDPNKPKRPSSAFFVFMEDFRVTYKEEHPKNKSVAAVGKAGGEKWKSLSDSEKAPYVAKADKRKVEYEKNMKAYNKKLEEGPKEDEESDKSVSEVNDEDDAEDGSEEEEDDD", "assay": "Callose staining: AtHMGB3-induced callose deposition in Arabidopsis leaves", "format": "in vivo", "parameters": "providing a full length Arabidopsis thaliana HMGB1 or HMGB3 (AtHMGB1 or AtHMGB3) protein; 6x His; made in house; host or cells: Escherichia coli BL21", "details": "100 nM AtHMGB3, 15 h", "procedure": "Arabidopsis leaves were collected 15 h after infiltration with 100 nM AtHMGB3 or 100 nM Pep1, and then immediately immersed in alcoholic lactophenol (phenol:glycerol:lactic acid:water:ethanol=1:1:1:1:8) to destain the chlorophyll. To remove the background fluorescence, destained leaves were treated with toluidine blue O solution (0.05% toluidine blue O, 0.1 M sodium acetate, pH 4.4) for 30 min, and then rinsed twice with 150 mM K2HPO4 (pH 9.5). Callose was stained with aniline blue solution (0.02% aniline blue, 150 mM K2HPO4, pH 9.5) for 30 min in the absence of light. The aniline blue-stained leaves were mounted with 25% glycerol and analyzed using a Leica DM5500 epifluorescence microscope. The number of callose loci was quantified using an ImageJ (NIH)."}, "[1]": {"system": "LPS-induced expression of COX-2, IL-6 and TNFα", "assay": "LPS-induced cytokine and COX-2 gene expression in human macrophages (qPCR)", "format": "cell-based", "details": "10 ng/ml LPS, 100 μM SA or 1 μM ac3AESA", "procedure": "Human HeLa cells were grown in T75 flasks in DMEM medium supplemented with penicillin (10,000 IU/mL) streptomycin ([…]), and 10% fetal calf serum. Ptgs2−/− MEFs were derived from Ptgs2−/− E16 mouse embryos, obtained from the mating of Ptgs2+/− mice purchased from Taconic Biosciences. PBMCs were isolated from buffy coats of donor blood (Hospital of Magenta, Milan, Italy) by Ficoll gradient centrifugation (Lymphoprep; AXIS-SHIELD. CD14+ monocytes were isolated by positive immunoselection (CD14 Microbeads; Miltenyi Biotec) according to the manufacturer's instructions, and differentiated into macrophages using X-Vivo medium supplemented with 1% heat inactivated human serum, GM-CSF, and M-CSF.\nTotal RNAs were isolated using the Illustra RNAspin Mini kit (GE Healthcare), and complementary DNA (cDNA) was obtained by retro-transcription with oligo(dT) primers (Invitrogen, Carlsbad, Calif., USA) and SuperScript II Reverse Transcriptase (Invitrogen) following the manufacturers' instructions. Quantitative real-time PCR was performed using a LightCycler480 (Roche Molecular Diagnostics), in duplicates, using SYBR Green I master mix and the oligonucleotides listed in Table of primers below. The ΔCt method was used for quantification, and the β-actin gene was used for normalization."}, "R50A/K54A mutant AtHMGB3": {"target": "T2, R50A/K54A mutant AtHMGB3 (Arabidopsis thaliana, UniProt P93047, K54A/R50A)", "T2 construct": "providing a full length Arabidopsis thaliana HMGB1 or HMGB3 (AtHMGB1 or AtHMGB3) protein; made in house", "T2 sequence (P93047 whole entry R50A/K54A)": "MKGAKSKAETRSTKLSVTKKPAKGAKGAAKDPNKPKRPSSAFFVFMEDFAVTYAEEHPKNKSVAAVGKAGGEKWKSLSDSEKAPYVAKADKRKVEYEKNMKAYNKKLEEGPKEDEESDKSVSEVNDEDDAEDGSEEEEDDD", "assay": "MAPK activation assay with mutant R50A/K54A AtHMGB3", "details": "in vivo", "procedure": "To detect the phosphorylation of Arabidopsis MAPKs (MPK3/4/6), 3 to 4 week-old soil grown Arabidopsis leaves were infiltrated with 1 μM AtHMGB3 or 1 μM Pep1 peptide ([…]; synthesized by GenScript USA Inc.). […] Proteins were extracted using lacus buffer (25 mM Tris-HCl, pH 7.5, 15 mM MgCl2, 15 mM EGTA, 75 mM NaCl, 1 mM DTT, 0.1% NP-40, 5 mM p-nitrophenylphosphate, 60 mM β-glycerophosphate, 0.1 mM […], 1 mM NaF, 1 mM PMSF, 5 μg/ml leupeptin, 5 μg/ml aprotinin), and then centrifuged at 15,000 g for 10 min at 4 ° C. to remove cell debris.\nThus, these residues (R50 and K54) were mutated to Ala, and the resulting mutant AtHMGB3 tested for its ability to activate MPK3/6 and induce callose deposition in the absence or presence of SA. The R50A/K54A mutant AtHMGB3 retained its ability to activate MPK3/6 and induce callose deposition, but inhibition of these activities by SA was lost (FIG. 7H,I and FIG. 8)."}, "K12A/K68A HMGB1^RE": {"target": "T3, K12A/K68A HMGB1^RE (Homo sapiens, UniProt P09429, K12A/K68A)", "T3 construct": "(i) full length: residues 2-215; made in house", "T3 sequence (P09429 2-215 K12A/K68A)": "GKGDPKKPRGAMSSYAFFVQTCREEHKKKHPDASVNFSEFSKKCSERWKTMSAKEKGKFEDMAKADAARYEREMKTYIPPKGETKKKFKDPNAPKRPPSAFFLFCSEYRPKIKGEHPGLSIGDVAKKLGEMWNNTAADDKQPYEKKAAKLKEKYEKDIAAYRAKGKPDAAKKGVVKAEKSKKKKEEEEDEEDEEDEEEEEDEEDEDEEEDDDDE", "assay": "Chemotaxis assay with mutant K12A/K68A HMGB1^RE", "format": "cell-based", "details": "1 nM mutant HMGB1^RE, 30 μM SA", "procedure": "Cell migration was assayed using Boyden chambers (Venereau et al., 2012). The downside of PVP-free polycarbonate filters (8 μm pores; Millipore) was coated with 50 μg/ml fibronectin (Sigma). Serum-free DMEM (negative control), DMEM containing 0.1 nM fMLP (positive control; Sigma), or DMEM containing 1 nM HMGB1^RE or HMGB1^SS were placed in the lower chamber, together with different concentrations of SA (Sigma). The mouse 3T3 fibroblast cells were cultured in DMEM media supplemented with 10% CS until 90% confluence, washed twice with PBS to eliminate any floating cells, and harvested with trypsin. 50,000 cells in 200 μL were added to the upper chamber, and cells were left to migrate for 3 h at 37° C. Non-migrating cells were removed with a cotton swab, and migrated cells were fixed with ethanol and stained with Giemsa.\nTwo additional double mutants in Box A were constructed—H27A/R48A and K12A/K68A. […] Since mutant H27A/R48A no longer had chemo-attractant activity, the effect of SA on this activity could not be assessed (FIG. 12)."}}, "data": [{"compound": "O=C(O)c1ccccc1O", "note": "[SA, salicylic acid]", "values": [{"measurement": "effect on AtHMGB3-induced callose deposition", "setting": "AtHMGB3", "result": "completely suppressed"}, {"measurement": "effect on LPS-induced expression of cytokine and COX-2 genes", "setting": "[1]", "result": "did not suppress"}, {"measurement": "inhibition by SA of MPK3/6 activation by R50A/K54A AtHMGB3", "setting": "R50A/K54A mutant AtHMGB3", "result": "lost"}, {"measurement": "inhibition by SA of K12A/K68A HMGB1^RE chemo-attractant activity", "setting": "K12A/K68A HMGB1^RE", "result": "retained"}]}]}
